This note sets out measurements from patent publication US9199981B2 (NOVARTIS AG, priority 2011, dated 2015).

The structures appear in SMILES notation.

Sequence of c-kit (P10721 26-976): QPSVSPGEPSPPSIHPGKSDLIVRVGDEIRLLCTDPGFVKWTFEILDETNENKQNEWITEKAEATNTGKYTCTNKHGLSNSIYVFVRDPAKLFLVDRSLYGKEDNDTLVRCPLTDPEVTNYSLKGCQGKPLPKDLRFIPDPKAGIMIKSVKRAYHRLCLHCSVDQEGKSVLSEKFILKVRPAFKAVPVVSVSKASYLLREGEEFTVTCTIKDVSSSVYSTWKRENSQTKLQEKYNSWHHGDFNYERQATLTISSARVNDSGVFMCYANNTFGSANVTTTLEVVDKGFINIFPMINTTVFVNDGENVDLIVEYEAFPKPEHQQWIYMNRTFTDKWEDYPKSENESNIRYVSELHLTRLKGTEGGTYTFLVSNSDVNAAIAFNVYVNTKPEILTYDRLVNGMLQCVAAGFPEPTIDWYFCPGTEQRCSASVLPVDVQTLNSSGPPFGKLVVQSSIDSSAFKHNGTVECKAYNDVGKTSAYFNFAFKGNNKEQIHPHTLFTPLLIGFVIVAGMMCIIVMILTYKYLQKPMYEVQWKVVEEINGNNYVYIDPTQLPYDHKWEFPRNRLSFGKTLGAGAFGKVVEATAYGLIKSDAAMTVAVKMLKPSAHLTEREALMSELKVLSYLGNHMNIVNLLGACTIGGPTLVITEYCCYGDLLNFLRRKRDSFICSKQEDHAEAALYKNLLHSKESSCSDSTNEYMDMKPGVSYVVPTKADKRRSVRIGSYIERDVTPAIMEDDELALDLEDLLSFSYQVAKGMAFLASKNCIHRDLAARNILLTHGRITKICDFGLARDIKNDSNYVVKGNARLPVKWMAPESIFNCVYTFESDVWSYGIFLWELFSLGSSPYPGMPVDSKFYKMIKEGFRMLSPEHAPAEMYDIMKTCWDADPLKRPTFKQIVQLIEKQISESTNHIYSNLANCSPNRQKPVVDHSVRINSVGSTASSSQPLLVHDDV

The target of one experiment is c-kit (Homo sapiens (Human), UniProt P10721). Put plainly: Mo7e cell proliferation assay (SCF dependent proliferation). The conditions noted are these: Mo7e cells stimulated with human recombinant SCF, 48 hours, 1% FBS. The experiment is classed as cell-based. The procedure:
Compounds of Formula (I) and Formula (II) provided herein were assayed to measure their capacity to inhibit c-kit and PDGFR kinases using the appropriate assay described below: c-Kit inhibition was evaluated using the Mo7e cell proliferation assay, and PDGFR inhibition was evaluated using the Rat A10 cell proliferation assay and the Human TG/HA-VSMC cell proliferation assay.
Mo7e Cell Proliferation Assay
The compounds of Table 1 and Table 2 were tested for inhibition of SCF dependent proliferation using human Mo7e cells which endogenously express c-kit in a 384 well format. […] After 48 hours of incubation at 37° C., cell viability was measured by adding 25 uL of CellTiter Glo (Promega) to the cells and the luminescence was measured by a CLIPR CCD camera (Molecular Devices).
The IC50 value is given as that concentration of the test compound in question that provoke a response halfway between the baseline and maximum responses.
Take `Cc1ccc(-c2noc(C3CC(F)(F)C3)n2)cc1NC(=O)c1cnc2ccc(-n3ccnc3)cn12` [F82]: the IC50 was found to be 78 nM.

As to `Cc1ccc(-c2noc(C3CC(F)(F)C3)n2)cc1NC(=O)c1cnc2ccc(COCCF)cn12` [F83], the IC50 was found to be 29 nM.

In the case of `COCc1n[nH]c(-c2ccc3ncc(C(=O)Nc4cc(-c5noc(C6CC(F)(F)C6)n5)ccc4C)n3c2)n1` [F84], the IC50 amounted to 22 nM.

As to `Cc1ccc(-c2noc(C3CC3(F)F)n2)cc1NC(=O)c1cnc2ccc(COCC(F)(F)F)cn12` (centres unmarked) [F85], the IC50 came out at 69 nM.

Consider `Cc1ccc(-c2noc(C3CCC3)n2)cc1NC(=O)c1cnc2ccc(COCC(F)(F)F)cn12` [F86], for which the half-inhibitory concentration (IC50) was 49 nM.

As for `Cc1ccn2c(C(=O)Nc3cc(-c4noc([C@H]5C[C@](O)(C(F)(F)F)C5)n4)ccc3C)cnc2c1` [F89], the IC50 was 25 nM.

Consider `Cc1ccc(-c2noc([C@H]3C[C@](O)(C(F)(F)F)C3)n2)cc1NC(=O)c1cnc2ccc(F)cn12` [F90], for which the IC50 worked out at 40 nM.

On to `Cc1ccc(-c2noc([C@H]3C[C@@H]3F)n2)cc1NC(=O)c1cnc2ccccn12` [F91], for which the IC50 amounted to 20 nM.

Take `[2H]c1c([2H])c([2H])n2c(C(=O)Nc3cc(-c4noc(C5CC(F)(F)C5)n4)ccc3C)cnc2c1[2H]` [F92]: the IC50 was found to be 35 nM.

Turning to `Cc1ccc(C(=O)NC2CC(F)(F)C2)cc1NC(=O)c1cnc2ccccn12` [F93], the IC50 turned out to be 24 nM.

In the case of `Cc1ccc(-c2noc(C3CC(O)(C(F)(F)F)C3)n2)cc1NC(=O)c1cnc2cc(F)ccn12` (centres unmarked) [F94], the IC50 is 56 nM.

As to `Cc1cn(-c2ccc3ncc(C(=O)Nc4cc(-c5noc(C6CC(F)(F)C6)n5)ccc4C)n3c2)cn1` [F95], the IC50 was 77 nM.

For `COCC1(c2nc(-c3ccc(C)c(NC(=O)c4cnc5ccc(F)cn45)c3)no2)CCC1` [F98], the IC50 was 86 nM.

In the case of `Cc1ccc(-c2noc([C@@H]3C[C@@H]3F)n2)cc1NC(=O)c1cnc2ccccn12` [F101], the IC50 is 67 nM.

For `Cc1ccn2c(C(=O)Nc3cc(-c4noc(COC5CC(F)(F)C5(F)F)n4)ccc3C)cnc2c1` (centres unmarked) [F102], the IC50 is 9 nM.

With `Cc1ccc2ncc(C(=O)Nc3cc(-c4noc(COC5CC(F)(F)C5(F)F)n4)ccc3C)n2c1` (centres unmarked) [F103], the IC50 was found to be 16 nM.

As for `Cc1ccc(-c2noc(C3CC3)n2)cc1NC(=O)c1cnc2ccccn12` [F104], the half-maximal inhibitory concentration (IC50) turned out to be 57 nM.

On to `Cc1ccc(-c2noc(CC3CC3)n2)cc1NC(=O)c1cnc2ccccn12` [F105], for which the IC50 is 40 nM.

As for `Cc1ccn2c(C(=O)Nc3cc(-c4noc([C@H]5C[C@@H]5F)n4)ccc3C)cnc2c1` [F106], the half-inhibitory concentration (IC50) was determined as 52 nM.

For `Cc1ccn2c(C(=O)Nc3cc(-c4noc([C@@H]5C[C@H]5F)n4)ccc3C)cnc2c1` [F107], the IC50 worked out at 85 nM.

Consider `Cc1ccc(-c2noc([C@H]3C[C@@H]3F)n2)cc1NC(=O)c1cnc2ccccn12` [F110, N-(5-(5-((1R,2S)-2-fluorocyclopropyl)-1,2,4-oxadiazol-3-yl)-2-methylphenyl)imidazo[1,2-a]pyridine-3-carboxamide], for which the concentration for half-maximal inhibition (IC50) was 58 nM.

For the molecule `Cc1ccn2c(C(=O)Nc3cc(-c4noc(C5CC(F)C5)n4)ccc3C)cnc2c1` (centres unmarked) [F111], the IC50 came out at 46 nM.

Regarding `Cc1ccc2ncc(C(=O)Nc3cc(-c4noc(C5CC(F)C5)n4)ccc3C)n2c1` (centres unmarked) [F112], the IC50 was 56 nM.

Consider `Cc1ccc(-c2noc([C@@H]3C[C@H]3F)n2)cc1NC(=O)c1cnc2ccccn12` [F113, N-(5-(5-((1S,2R)-2-fluorocyclopropyl)-1,2,4-oxadiazol-3-yl)-2-methylphenyl)imidazo[1,2-a]pyridine-3-carboxamide], for which the IC50 was found to be 56 nM.

Take `CO/N=C1/CCC(c2nc(-c3ccc(C)c(NC(=O)c4cnc5ccccn45)c3)no2)C1` (centres unmarked) [F117]: the 50% inhibitory concentration (IC50) was determined as 203 nM.

Turning to `Cc1ccc(-c2noc(C3(C(F)(F)F)CC3)n2)cc1NC(=O)c1cnc2ccccn12` [F119], the IC50 came out at 162 nM.

`Cc1ccc(-c2noc(C3CC(=O)C3)n2)cc1NC(=O)c1cnc2ccccn12` [F121]: the IC50 was found to be 140 nM.

As for `Cc1ccc(-c2noc([C@H]3C[C@@H](N4CCCCC4)C3)n2)cc1NC(=O)c1cnc2ccccn12` [F123], the IC50 amounted to 345 nM.

Consider `Cc1ccc(-c2noc([C@H]3C[C@@H](N4CCOCC4)C3)n2)cc1NC(=O)c1cnc2ccccn12` [F124], for which the IC50 worked out at 257 nM.

For `Cc1ccc(-c2noc([C@H]3C[C@@H](N4CCN(C)CC4)C3)n2)cc1NC(=O)c1cnc2ccccn12` [F125], the IC50 was found to be 393 nM.

Take `Cc1ccc(-c2noc(C3CC(=NOCCN4CCOCC4)C3)n2)cc1NC(=O)c1cnc2ccccn12` (centres unmarked) [F126]: the IC50 stood at 213 nM.

In the case of `Cc1ccc(-c2noc([C@H]3C[C@H](NC(=O)OC(C)(C)C)C3)n2)cc1NC(=O)c1cnc2ccccn12` [F127], the IC50 stood at 353 nM.

Consider `Cc1ccc(-c2noc([C@H]3C[C@H](NS(C)(=O)=O)C3)n2)cc1NC(=O)c1cnc2ccccn12` [F129], for which the IC50 stood at 143 nM.

As to `Cc1ccc(-c2noc(C3(N)CC3)n2)cc1NC(=O)c1cnc2ccccn12` [F131], the 50% inhibitory concentration (IC50) came to 311 nM.

As to `COCC(=O)NC1(c2nc(-c3ccc(C)c(NC(=O)c4cnc5ccccn45)c3)no2)CC1` [F132], the IC50 came out at 554 nM.

With `COCCN[C@H]1C[C@@H](c2nc(-c3ccc(C)c(NC(=O)c4cnc5ccccn45)c3)no2)C1` [F133], the IC50 was 451 nM.

Consider `O=C(Nc1cc(-c2noc(C3CC(F)(F)C3)n2)ccc1F)c1cnc2ccccn12` [F134], for which the IC50 was 144 nM.

On to `COC1(C(F)(F)F)CC(c2nc(-c3ccc(C)c(N(C)C(=O)c4cnc5ccccn45)c3)no2)C1` (centres unmarked) [F135], for which the IC50 was found to be 999 nM.

For `Cc1ccc(-c2noc(C3(NC(=O)OC(C)(C)C)CCC3)n2)cc1NC(=O)c1cnc2ccccn12` [F136], the IC50 was found to be 171 nM.

In the case of `Cc1ccc(-c2noc(C3(N)CCC3)n2)cc1NC(=O)c1cnc2ccccn12` [F137], the IC50 worked out at 197 nM.

As to `C=C1CC(c2nc(-c3ccc(F)c(NC(=O)c4cnc5ccccn45)c3)no2)C1` [F138], the IC50 was found to be 103 nM.

Take `Cc1ccc(-c2noc(C3(CO)CC3)n2)cc1NC(=O)c1cnc2ccccn12` [F139]: the IC50 is 137 nM.

For the molecule `Cc1ccc(-c2noc(CNC(=O)C3CC3(F)F)n2)cc1NC(=O)c1cnc2ccccn12` (centres unmarked) [F140], the half-inhibitory concentration (IC50) amounted to 132 nM.

For the molecule `Cc1ccc(-c2noc(CNC(=O)OC3(C)CC3)n2)cc1NC(=O)c1cnc2cc(C(F)(F)F)ccn12` [F141], the IC50 was found to be 391 nM.

With `COC(=O)NC1CC(c2nc(-c3ccc(C)c(NC(=O)c4cnc5ccccn45)c3)no2)C1` (centres unmarked) [F142], the half-maximal inhibitory concentration (IC50) was 148 nM.

`Cc1ccc(-c2noc(C3CC(F)(F)C3)n2)cc1NC(=O)c1cnc2ccc(CCC(=O)OC(C)(C)C)cn12` [F143]: the IC50 was 237 nM.

Take `Cc1ccc(-c2noc(C3CC(F)(F)C3)n2)cc1NC(=O)c1cnc2ccc(CN3CCN(C)CC3)cn12` [F144]: the IC50 turned out to be 249 nM.

For `Cc1ccc(-c2noc(C3CC(F)(F)C3)n2)cc1NC(=O)c1cnc2ccc(CN3CCN(CCO)CC3)cn12` [F145], the IC50 is 238 nM.

`COCCOCc1ccc2ncc(C(=O)Nc3cc(-c4noc(C5CC(F)(F)C5)n4)ccc3C)n2c1` [F146]: the IC50 was determined as 105 nM.

With `Cc1ccc(-c2noc(C3CC(F)(F)C3)n2)cc1NC(=O)c1cnc2ccc(-c3cnn(CC(=O)O)c3)cn12` [F147], the 50% inhibitory concentration (IC50) was 351 nM.

As for `Cc1ccc(-c2noc(C3(O)CC3)n2)cc1NC(=O)c1cnc2ccccn12` [F148], the 50% inhibitory concentration (IC50) was 305 nM.

Regarding `Cc1ccc(-c2noc(C3CC(F)(F)C3)n2)cc1NC(=O)c1cnc2cc(OC(F)F)ccn12` [F149], the IC50 was determined as 378 nM.

`Cc1ccc(-c2noc(C3CC(n4cncn4)C3)n2)cc1NC(=O)c1cnc2ccccn12` (centres unmarked) [F150]: the IC50 came to 167 nM.

Regarding `Cc1ccc(-c2noc([C@H]3C[C@@H](O)C3)n2)cc1NC(=O)c1cnc2ccc(F)cn12` [F151], the IC50 was 181 nM.

As for `O=C(Nc1cc(-c2noc(C3CCC3)n2)ccc1F)c1cnc2ccccn12` [F152], the half-inhibitory concentration (IC50) was 151 nM.

`Cc1ccc(-c2noc(C3CC(F)(F)C3)n2)cc1NC(=O)c1cnc2ccc(CC(C)(C)O)cn12` [F153]: the IC50 came out at 165 nM.

In the case of `Cc1ccc(-c2noc(C3CC(F)(F)C3)n2)cc1NC(=O)c1cnc2ccc(CN3CCOC3=O)cn12` [F154], the half-maximal inhibitory concentration (IC50) was found to be 365 nM.

With `Cc1ccc(-c2noc(C3CC(F)(F)C3)n2)cc1NC(=O)c1cnc2cc(CC(C)(C)O)ccn12` [F155], the IC50 is 390 nM.

For the molecule `CC1(C)CC(c2nc(-c3ccc(F)c(NC(=O)c4cnc5ccccn45)c3)no2)C1` [F156], the IC50 stood at 125 nM.

On to `Cc1ccc(-c2noc([C@H]3C[C@@](C)(O)C3)n2)cc1NC(=O)c1cnc2ccc(F)cn12` [F158], for which the IC50 worked out at 175 nM.

Consider `Cc1ccc(-c2noc(C3CC3O)n2)cc1NC(=O)c1cnc2ccccn12` (centres unmarked) [F159], for which the IC50 is 218 nM.

Regarding `Cc1ccc(-c2noc(C3CC(F)(F)C3)n2)c(C)c1NC(=O)c1cnc2ccccn12` [F160], the IC50 stood at 293 nM.

For `Cc1ccc(-c2noc(C3CC(F)(F)C3)n2)cc1NC(=O)c1cnc2ccc(-n3cncc3C)cn12` [F163], the IC50 is 139 nM.

With `COCCOCc1ccc2ncc(C(=O)Nc3cc(-c4noc(C5CC(F)(F)C5)n4)ccc3C)n2c1` [F164], the IC50 turned out to be 101 nM.

For the molecule `Cc1ccn2c(C(=O)Nc3cc(-c4noc(C5CC5(F)F)n4)ccc3C)cnc2c1` (centres unmarked) [F165], the IC50 is 107 nM.

Turning to `Cc1ccc(-c2noc(C3(F)CCC3)n2)cc1NC(=O)c1cnc2ccccn12` [F166], the IC50 was 111 nM.

The same experiment, now with this note: Mo7e cells stimulated with human recombinant SCF, 48 hours, 20% FBS (values marked *).
As to `Cc1ccc(-c2nc(C3CC3)no2)cc1NC(=O)c1cnc2ccccn12` [F114], the IC50 turned out to be 322 nM.

As for `Cc1ccc(-c2noc(C3CC(C)(O)C3)n2)cc1NC(=O)c1cnc2ccccn12` (centres unmarked) [F116], the IC50 was 182 nM.

A word on the IC50: it is the concentration that gives 50% inhibition.
